Publication PMC8523698, “Preclinical characterization of an intravenous coronavirus 3CL protease inhibitor for the potential treatment of COVID19” (Nature Communications, 2021)
“And” between values parts separate entries of the source, which are not always exact repeats. Equal entries are not always repeated. Where two headings read alike, the source gives them in different places.

What was measured:
[1] = system: CYP3A4/5; experiment: in vitro; settings: human, microsomes, pH 7.4, Percent of Control Activity, CYP 3A4/5 (mdz)
[2] = system: Salmonella typhimurium strains and E. coli strain WP2 uvrA; experiment: Bacterial reverse mutation assay; settings: with and without metabolic activation
[3] = molecular target: T1, CYP2C8 (Homo sapiens, UniProt P10632); experiment: Reversible CYP inhibition in human liver microsomes; settings: for activity at 0.01 µM / activity at 0.158 µM / activity at 0.398 µM / activity at 1 µM / activity at 15.8 µM / activity at 39.8 µM / activity at 100 µM: human, microsomes, pH 7.4, Percent of Control Activity
T1 sequence (P10632 1-490): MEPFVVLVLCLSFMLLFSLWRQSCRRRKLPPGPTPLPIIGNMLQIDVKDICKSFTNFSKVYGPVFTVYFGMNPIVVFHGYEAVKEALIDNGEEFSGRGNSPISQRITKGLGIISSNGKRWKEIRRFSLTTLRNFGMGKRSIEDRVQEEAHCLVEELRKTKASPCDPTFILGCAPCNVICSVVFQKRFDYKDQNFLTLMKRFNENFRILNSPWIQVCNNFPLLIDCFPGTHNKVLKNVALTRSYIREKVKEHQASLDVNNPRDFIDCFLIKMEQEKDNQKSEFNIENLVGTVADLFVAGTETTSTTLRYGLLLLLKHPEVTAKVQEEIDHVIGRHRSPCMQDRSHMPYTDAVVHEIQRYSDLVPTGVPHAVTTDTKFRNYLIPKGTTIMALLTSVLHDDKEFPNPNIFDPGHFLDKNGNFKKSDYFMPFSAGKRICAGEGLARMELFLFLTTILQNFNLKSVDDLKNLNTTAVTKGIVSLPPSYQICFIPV

[4] = system: CYP3A4/5; experiment: as above; settings: for IC50: pH 7.4, probe midazolam (1′-hydroxylation), at approximately KM, IC50, Midazolam 1′-hydroxylation
[5] = molecular target: T2, OATP1B1 (Homo sapiens, UniProt Q9Y6L6); experiment: Transporter inhibition using transfected HEK293 cells; settings: IC50, Rosuvastatin (0.5 µM)
T2 sequence (Q9Y6L6 1-691): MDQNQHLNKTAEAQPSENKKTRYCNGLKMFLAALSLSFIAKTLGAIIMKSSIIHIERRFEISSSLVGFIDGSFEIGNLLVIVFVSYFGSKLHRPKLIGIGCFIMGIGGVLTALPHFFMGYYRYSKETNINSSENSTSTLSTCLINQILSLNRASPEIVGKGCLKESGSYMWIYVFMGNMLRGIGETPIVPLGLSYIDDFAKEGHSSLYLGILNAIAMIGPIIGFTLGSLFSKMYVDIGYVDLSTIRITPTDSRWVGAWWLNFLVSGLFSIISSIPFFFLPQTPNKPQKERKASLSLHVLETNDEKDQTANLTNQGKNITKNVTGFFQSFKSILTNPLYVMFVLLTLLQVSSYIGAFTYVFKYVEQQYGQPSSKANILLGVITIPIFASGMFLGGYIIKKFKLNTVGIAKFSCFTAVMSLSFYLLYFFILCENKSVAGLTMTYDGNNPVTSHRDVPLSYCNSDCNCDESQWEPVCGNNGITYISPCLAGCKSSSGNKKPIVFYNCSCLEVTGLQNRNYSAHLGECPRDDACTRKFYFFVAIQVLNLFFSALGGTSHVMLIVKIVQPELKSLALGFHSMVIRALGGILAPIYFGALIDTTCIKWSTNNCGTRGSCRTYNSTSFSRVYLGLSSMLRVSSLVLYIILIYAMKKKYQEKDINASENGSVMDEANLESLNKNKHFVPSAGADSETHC

[6] = human, human liver microsomes, pH 7.4, probe midazolam (mdz), Percent of Control Activity, CYP 3A4/5 (mdz), 30-Minute Preincubation
[7] = human, human liver microsomes, pH 7.4, probe midazolam (mdz), Percent of Control Activity, CYP 3A4/5 (mdz), Zero-Minute Preincubation

Compound: COc1cccc2[nH]c(C(=O)N[C@@H](CC(C)C)C(=O)N[C@@H](C[C@@H]3CCNC3=O)C(=O)COP(=O)(O)O)cc12 [PF-07304814]
- activity at 0.01 µM ([1]; 30-Minute Preincubation): 99.4%
- activity at 0.01 µM ([1]; Zero-Minute Preincubation): 102%
- activity at 0.158 µM ([1]; 30-Minute Preincubation): 102%
- activity at 0.158 µM ([1]; Zero-Minute Preincubation): 99.1%
- activity at 0.398 µM ([1]; 30-Minute Preincubation): 101%
- activity at 0.398 µM ([1]; Zero-Minute Preincubation): 99.3%
- activity at 1 µM ([1]; 30-Minute Preincubation): 99.2%
- activity at 1 µM ([1]; Zero-Minute Preincubation): 100%
- activity at 15.8 µM ([1]; 30-Minute Preincubation): 97.5%
- activity at 15.8 µM ([1]; Zero-Minute Preincubation): 102%
- activity at 39.8 µM ([1]; 30-Minute Preincubation): 97%
- activity at 39.8 µM ([1]; Zero-Minute Preincubation): 100%
- activity at 100 µM ([1]; 30-Minute Preincubation): 99.2%
- activity at 100 µM ([1]; Zero-Minute Preincubation): 101%
- bacterial reverse mutation assay result [2]: negative
- IC50 [3]: > 100 µM
- IC50 ([3]; Amodiaquine N-dealkylation, T30): > 100 µM
- Percent of Control Activity ([3]; CYP 2C8, 0.01 µM, 30-Minute Preincubation, 0.01 µM): 100.2%
- Percent of Control Activity ([3]; CYP 2C8, 0.01 µM, Zero-Minute Preincubation, 0.01 µM): 96.2% and 97.6%
- Percent of Control Activity ([3]; CYP 2C8, 0.158 µM, 30-Minute Preincubation, 0.158 µM): 96.6% and 95.8%
- Percent of Control Activity ([3]; CYP 2C8, 0.158 µM, Zero-Minute Preincubation, 0.158 µM): 91.2% and 95.2%
- Percent of Control Activity ([3]; CYP 2C8, 0.398 µM, 30-Minute Preincubation, 0.398 µM): 95.5% and 95.0%
- Percent of Control Activity ([3]; CYP 2C8, 0.398 µM, Zero-Minute Preincubation, 0.398 µM): 94.0% and 94.9%
- Percent of Control Activity ([3]; CYP 2C8, 1 µM, 30-Minute Preincubation, 1 µM): 96.0% and 95.0%
- Percent of Control Activity ([3]; CYP 2C8, 1 µM, Zero-Minute Preincubation, 1 µM): 93.7%
- Percent of Control Activity ([3]; CYP 2C8, 15.8 µM, 30-Minute Preincubation, 15.8 µM): 96.2% and 94.8%
- Percent of Control Activity ([3]; CYP 2C8, 15.8 µM, Zero-Minute Preincubation, 15.8 µM): 94.0% and 95.0%
- Percent of Control Activity ([3]; CYP 2C8, 39.8 µM, 30-Minute Preincubation, 39.8 µM): 94.8% and 91.6%
- Percent of Control Activity ([3]; CYP 2C8, 39.8 µM, Zero-Minute Preincubation, 39.8 µM): 94.6%
- Percent of Control Activity ([3]; CYP 2C8, 100 µM, 30-Minute Preincubation, 100 µM): 96.4%
- Percent of Control Activity ([3]; CYP 2C8, 100 µM, Zero-Minute Preincubation, 100 µM): 88.3%
- activity at 0.01 µM ([3]; CYP 2C8, 0.01 µM, 30-Minute Preincubation): 94.3%
- activity at 0.01 µM ([3]; CYP 2C8, 0.01 µM, Zero-Minute Preincubation): 95.1%
- activity at 0.158 µM ([3]; CYP 2C8, 0.158 µM, 30-Minute Preincubation): 90.5%
- activity at 0.158 µM ([3]; CYP 2C8, 0.158 µM, Zero-Minute Preincubation): 91.3%
- activity at 0.398 µM ([3]; CYP 2C8, 0.398 µM, 30-Minute Preincubation): 92.1%
- activity at 0.398 µM ([3]; CYP 2C8, 0.398 µM, Zero-Minute Preincubation): 95.4%
- activity at 1 µM ([3]; CYP 2C8, 1 µM, 30-Minute Preincubation): 91.8%
- activity at 1 µM ([3]; CYP 2C8, 1 µM, Zero-Minute Preincubation): 92.1%
- activity at 15.8 µM ([3]; CYP 2C8, 15.8 µM, 30-Minute Preincubation): 88.9%
- activity at 15.8 µM ([3]; CYP 2C8, 15.8 µM, Zero-Minute Preincubation): 89.3%
- activity at 39.8 µM ([3]; CYP 2C8, 39.8 µM, 30-Minute Preincubation): 88.9%
- activity at 39.8 µM ([3]; CYP 2C8, 39.8 µM, Zero-Minute Preincubation): 87%
- activity at 100 µM ([3]; CYP 2C8, 100 µM, 30-Minute Preincubation): 89.5%
- activity at 100 µM ([3]; CYP 2C8, 100 µM, Zero-Minute Preincubation): 85.6%
- Percent of Control Activity ([4]; CYP 3A4/5 (mdz), 0.01 µM, 30-Minute Preincubation): 103.5%
- Percent of Control Activity ([4]; CYP 3A4/5 (mdz), 15.8 µM, Zero-Minute Preincubation): 105.7%
- Percent of Control Activity ([4]; CYP 3A4/5 (mdz), 39.8 µM, 30-Minute Preincubation): 99.7%
- Percent of Control Activity ([4]; CYP 3A4/5 (mdz), 100 µM, 30-Minute Preincubation): 95.6%
- Percent of Control Activity ([4]; CYP 3A4/5 (mdz), 100 µM, Zero-Minute Preincubation): 100.4%
- IC50 ([4]; human, human liver microsomes, T0): > 100 µM
- IC50 ([4]; human, human liver microsomes, T30): > 100 µM
- activity at 0.01 µM ([4]; human, human liver microsomes, pH 7.4, probe midazolam (mdz), Percent of Control Activity, CYP 3A4/5 (mdz), 0.01 µM, Zero-Minute Preincubation): 96.3%
- activity at 0.158 µM [4, 6]: 103%
- activity at 0.158 µM [4, 7]: 95%
- activity at 0.398 µM ([4]; human, human liver microsomes, pH 7.4, probe midazolam (mdz), Percent of Control Activity, CYP 3A4/5 (mdz), 0.398 µM, 30-Minute Preincubation): 100%
- activity at 1 µM [4, 6]: 100%
- activity at 1 µM [4, 7]: 99.8%
- activity at 15.8 µM ([4]; human, human liver microsomes, pH 7.4, probe midazolam (mdz), Percent of Control Activity, CYP 3A4/5 (mdz), 15.8 µM, Zero-Minute Preincubation): 101%
- activity at 100 µM ([4]; human, human liver microsomes, pH 7.4, probe midazolam (mdz), Percent of Control Activity, CYP 3A4/5 (mdz), 100 µM, 30-Minute Preincubation): 95%
- IC50 [5]: 134 µM and > 130 µM
